Assay results taken from patent publication US6319702A, “Nucleic acids encoding mutant human carboxypeptidase A enzymes” (Glaxo Wellcome, Inc., priority 1993, dated 2001).
Like-named read-outs stand apart in the source and are kept apart here.

Legend:
[1] = target: T1, wild type human carboxypeptidase A1 (Homo sapiens, UniProt P15085); test: Enzyme kinetics of prodrugs with wild type human carboxypeptidase A1 (coupled assay); type: biochemical
T1 sequence (P15085 111-419): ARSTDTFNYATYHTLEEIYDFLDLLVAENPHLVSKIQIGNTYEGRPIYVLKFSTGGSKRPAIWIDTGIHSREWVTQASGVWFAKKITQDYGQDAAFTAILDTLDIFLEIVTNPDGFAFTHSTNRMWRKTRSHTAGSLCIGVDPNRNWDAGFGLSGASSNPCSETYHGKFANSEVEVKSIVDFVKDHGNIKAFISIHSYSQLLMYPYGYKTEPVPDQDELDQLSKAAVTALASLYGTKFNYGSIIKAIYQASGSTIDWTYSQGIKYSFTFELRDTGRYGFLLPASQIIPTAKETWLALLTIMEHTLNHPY
Source text: (§1) As indicated herein, the in vivo stable prodrug of the present invention should be a better substrate for a mutant enzyme than the corresponding wild type enzyme in order for the stable prodrug to be activated selectively at the tumour. […] The most relevant kinetic constant in the table is the kcat/Km, which provides an estimate of the second order rate constant for the enzyme catalyzed conversion of prodrug to methotrexate. Thus, the larger the kcat/Km, the more efficient the enzyme with a particular substrate. […] Thus, the single mutation at 268 from thr to gly converted very poor substrates in the wild type enzyme to excellent substrates in the mutant enzyme. […] Thus, the compounds are much better substrates for the mutant enzyme than the wild type enzyme which permits very specific tumor targeted activation of the nontoxic, stable prodrug to the active agent.
(§2) Kinetics were determined by a modification of the coupled assay of Kuefner, et al (1989) Biochemistry 28 2288-2297 in which the product MTX is converted by excess carboxypeptidase G to the pteroate of MTX. In this assay the reaction is followed spectrophotometrically at 315 nm; at this wavelength the change in molar absorbtivity for the coupled reaction was determined to be 9.57 mM^-1 cm^-1. Assays were performed at 25° C. in 25 mM tris-HCl, 100 mM NaCl, pH 7.4. Prodrugs were preincubated at 25° C. with buffer and 17 milliunits of Sigma #C-9658 carboxypeptidase G in 1 ml total volume. Assay was initiated with carboxypeptidase A or the appropriate mutant. Initial velocities were obtained, and standard Michaelis-Menten calculations were used to determine kinetic constants (in Biochemistry, Lehninger, A. L. 1970, Worth Publishers, Inc, NY).

in vivo = settings: mouse, iv
268gly = test: Enzyme kinetics of prodrugs with 268gly mutant of human CPA1 (coupled assay); type: biochemical; settings: 268gly; 25° C., pH 7.4
Source text: as §1, §2

268ala = test: Enzyme kinetics of prodrugs with 268ala mutant of human CPA1 (coupled assay); type: biochemical; settings: 25° C., pH 7.4
Source text: as §1, §2

[2] = Stability and biodistribution of prodrugs in vivo (HPLC of plasma and tissues); design: species or system mice (CD-1 nude; BALB/C where indicated); settings: for stability in vivo (in words): mice
mutant enzyme = test: Substrate behaviour with mutant enzyme; type: biochemical, human
Source text: This type of compound is not useful for ADEPT.

[3] = CECUM, 30 min, 50 mg/kg i.p. or i.v., CD-1 nude mice
[4] = KIDNEY, 30 min, 50 mg/kg i.p. or i.v., CD-1 nude mice
[5] = LARGE INTESTINE, 30 min, 50 mg/kg i.p. or i.v., CD-1 nude mice
[6] = LARGE INTESTINE, 120 min, 50 mg/kg i.p. or i.v., CD-1 nude mice
[7] = LIVER, 30 min, 50 mg/kg i.p. or i.v., CD-1 nude mice
[8] = LIVER, 120 min, 50 mg/kg i.p. or i.v., CD-1 nude mice
[9] = SMALL INTESTINE, 30 min, 50 mg/kg i.p. or i.v., CD-1 nude mice
[10] = SPLEEN, 30 min, 50 mg/kg i.p. or i.v., CD-1 nude mice
[11] = mouse, cecum, 50 mg/kg, CECUM, 30 min, 50 mg/kg i.p. or i.v., CD-1 nude mice, read-out: stability: percentage of material observed as intact prodrug, cecum
[12] = mouse, kidney, 50 mg/kg, KIDNEY, 30 min, 50 mg/kg i.p. or i.v., CD-1 nude mice, read-out: stability: percentage of material observed as intact prodrug, kidney
[13] = mouse, large intestine, 50 mg/kg, LARGE INTESTINE, 30 min, 50 mg/kg i.p. or i.v., CD-1 nude mice, read-out: stability: percentage of material observed as intact prodrug, large intestine
[14] = mouse, large intestine, 50 mg/kg, LARGE INTESTINE, 120 min, 50 mg/kg i.p. or i.v., CD-1 nude mice, read-out: stability: percentage of material observed as intact prodrug, large intestine
[15] = mouse, liver, 50 mg/kg, LIVER, 30 min, 50 mg/kg i.p. or i.v., CD-1 nude mice, read-out: stability: percentage of material observed as intact prodrug, liver (converted)
[16] = mouse, liver, 50 mg/kg, LIVER, 120 min, 50 mg/kg i.p. or i.v., CD-1 nude mice, read-out: stability: percentage of material observed as intact prodrug, liver
[17] = mouse, plasma, 50 mg/kg, PLASMA, 30 min, 50 mg/kg i.p. or i.v., CD-1 nude mice, read-out: concentration of prodrug in plasma
[18] = mouse, plasma, 50 mg/kg, PLASMA, 30 min, 50 mg/kg i.p. or i.v., CD-1 nude mice, read-out: stability: percentage of material observed as intact prodrug, plasma
[19] = mouse, small intestine, 50 mg/kg, SMALL INTESTINE, 30 min, 50 mg/kg i.p. or i.v., CD-1 nude mice, read-out: stability: percentage of material observed as intact prodrug, small intestine
[20] = mouse, small intestine, 50 mg/kg, SMALL INTESTINE, 120 min, 50 mg/kg i.p. or i.v., CD-1 nude mice, read-out: stability: percentage of material observed as intact prodrug, small intestine
[21] = mouse, spleen, 50 mg/kg, SPLEEN, 30 min, 50 mg/kg i.p. or i.v., CD-1 nude mice, read-out: stability: percentage of material observed as intact prodrug, spleen

| SMILES | Km (268gly) | kcat (268gly) | Km (268ala) | kcat (268ala) | substrate for wild type CPA (in words) [1] | concentration of prodrug in cecum [2, 3] | concentration of prodrug in kidney [2, 4] | concentration of prodrug in large intestine [2, 5] | concentration of prodrug in large intestine [2, 6] | concentration of prodrug in liver [2, 7] | concentration of prodrug in liver [2, 8] | concentration of prodrug in small intestine [2, 9] | concentration of prodrug in spleen [2, 10] | stability in vivo (in words) ([2]; 50 mg/kg) | remaining at 0.5 h [2, 11] | remaining at 0.5 h [2, 12] | remaining at 0.5 h [2, 13] | remaining at 2 h [2, 14] | remaining at 0.5 h [2, 15] | remaining at 2 h [2, 16] | further results |
| --- | --- | --- | --- | --- | --- | --- | --- | --- | --- | --- | --- | --- | --- | --- | --- | --- | --- | --- | --- | --- | --- |
| CN(Cc1cnc2nc(N)nc(N)c2n1)c1ccc(C(=O)N[C@@H](CCC(=O)O)C(=O)N[C@@H](Cc2cccc(C3CCCC3)c2)C(=O)O)cc1 | 15 µM | 1.4 s⁻¹ | 31 µM | 0.001 s⁻¹ | – | – | – | – | – | – | – | – | – | – | – | – | – | – | – | – | kcat (symbol ND) ([1]; Human CPA1, rate too slow to assay): ND (not determined; rate to slow assay. kcat ≤ 0.0005/sec.); MTD (in vivo): > 40 mg/kg; NOAEL (in vivo): ≥ 40 mg/kg |
| Nc1nc(N)c(CCCNc2ccc(C(=O)N[C@@H](CCC(=O)O)C(=O)N[C@@H](Cc3cccc(C4CCCC4)c3)C(=O)O)cc2)c(=O)[nH]1 [Prodrug 14, N-(4-((3(2,4-diamino-1,6-dihydro-6-oxo-5-pyrimidinyl)propyl)amino)benzoyl)-L-glutam-1-yl-3-cyclopentyl-L-phenylalanine] | – | – | – | – | not for the wild type enzyme | 4.l | 4.6 nmol/g | 9.4 nmol/g | 34.6 nmol/g | 22.5 nmol/g | 42.1 nmol/g | 218.3 nmol/g | 2.4 nmol/g | stable in vivo | 100% | 100% | 100% | 76.8% | 100% | 100% | concentration of prodrug in cecum ([2]; CECUM, 120 min, 50 mg/kg i.p. or i.v., CD-1 nude mice): 65.3 nmol/g; concentration of prodrug in feces ([2]; FECES, 30 min, 50 mg/kg i.p. or i.v., CD-1 nude mice): 535.0 nmol/g; concentration of prodrug in feces ([2]; FECES, 120 min, 50 mg/kg i.p. or i.v., CD-1 nude mice): 932.8 nmol/g; concentration of prodrug in small intestine ([2]; SMALL INTESTINE, 120 min, 50 mg/kg i.p. or i.v., CD-1 nude mice): 127.8 nmol/g; remaining at 2 h ([2]; mouse, cecum, 50 mg/kg, CECUM, 120 min, 50 mg/kg i.p. or i.v., CD-1 nude mice, read-out: stability: percentage of material observed as intact prodrug, cecum): 48.8%; remaining at 0.5 h ([2]; mouse, feces, 50 mg/kg, FECES, 30 min, 50 mg/kg i.p. or i.v., CD-1 nude mice, read-out: stability: percentage of material observed as intact prodrug, feces (converted)): 90.7%; remaining at 2 h ([2]; mouse, feces, 50 mg/kg, FECES, 120 min, 50 mg/kg i.p. or i.v., CD-1 nude mice, read-out: stability: percentage of material observed as intact prodrug, feces): 88%; concentration at 0.5 h [2, 17]: 1.1 µM; remaining at 0.5 h [2, 18]: 100%; remaining at 0.5 h [2, 19]: 100%; remaining at 2 h [2, 20]: 100%; remaining at 0.5 h [2, 21]: 100%; substrate for a mutant enzyme (in words) (mutant enzyme): good substrates for a mutant enzyme |
| CN(Cc1cnc2nc(N)nc(N)c2n1)c1ccc(C(=O)N[C@@H](CCC(=O)O)C(=O)N[C@@H](Cc2ccccc2)C(=O)O)cc1 [Prodrug 10, N-(4-(((2,4-diamino-6-pteridinyl)methyl)methylamino)benzoyl)-L-glutam-1-yl-L-pheylalanine, reference compound] | 0.3 µM | 2.2 s⁻¹ | 0.9 µM | 2 s⁻¹ | good substrate | 3.0 nmol/g | 26.9 nmol/g | 19.3 nmol/g | 1.1 nmol/g | 335.1 nmol/g | 0.6 nmol/g | 17.3 nmol/g | 19.9 nmol/g | not stable in vivo | 65% | 100% | 65.3% | 21.6% | 94.4% | 7.55% | concentration of prodrug in kidney ([2]; KIDNEY, 120 min, 50 mg/kg i.p. or i.v., CD-1 nude mice): 0.0 nmol/g; concentration of prodrug in tumor ([2]; TUMOR, 30 min, 50 mg/kg i.p. or i.v., CD-1 nude mice): 3.0 nmol/g; concentration at 0.5 h [2, 17]: 17.8 µM; remaining at 0.5 h [2, 18]: 30.2%; concentration at 2 h ([2]; mouse, plasma, 50 mg/kg, PLASMA, 120 min, 50 mg/kg i.p. or i.v., CD-1 nude mice, read-out: concentration of prodrug in plasma): 1100 nM; remaining at 2 h ([2]; mouse, plasma, 50 mg/kg, PLASMA, 120 min, 50 mg/kg i.p. or i.v., CD-1 nude mice, read-out: stability: percentage of material observed as intact prodrug, plasma): 2.1%; remaining at 0.5 h [2, 19]: 16%; remaining at 2 h [2, 20]: 0%; remaining at 0.5 h [2, 21]: 80.4%; remaining at 0.5 h ([2]; mouse, tumor, 50 mg/kg, TUMOR, 30 min, 50 mg/kg i.p. or i.v., CD-1 nude mice, read-out: stability: percentage of material observed as intact prodrug, tumor): 65% |
